Holding throughout (format): in vivo
Settings in all cases: post-emergence spray, evaluated after 13 days

In assay [1] the test system is Ipomoea hederacea (IPOHE). The assay is described as follows: Post-emergence efficacy, Ipomoea hederacea. The procedure:
(§1) B1 Post-Emergence Efficacy
(§2) Seeds of a variety of test species are shown in standard soil in pots:—Solanum nigrum (SOLNI), Amaranthus retroflexus (AMARE), Setaria faberi (SETFA), Echinochloa crus-galli (ECHCG), Ipomoea hederacea (IPOHE), Lolium perenne (LOLPE). After 8 days cultivation (post-emergence) under controlled conditions in a glasshouse (at 24/16° C., day/night; 14 hours light; 65% humidity), the plants are sprayed with an aqueous spray solution derived from the formulation of the technical active ingredient in acetone/water (50:50) solution containing 0.5% Tween 20 (polyoxyethylene sorbitan monolaurate, CAS RN 9005-64-5). Compounds are applied at 1000 and 62.5 g/ha. The test plants are then grown in a glasshouse under controlled conditions in a glasshouse (at 24/16° C., day/night; 14 hours light; 65% humidity) and watered twice daily. After 13 days, the test is evaluated for the percentage damage caused to the plant. The biological activities are assessed on a five point scale (5=80-100%; 4=60-79%; 3=40-59%; 2=20-39%; 1=0-19%).

In the next assay the test system is Solanum nigrum (SOLNI). The assay is described as follows: Post-emergence efficacy, Solanum nigrum. As for the experimental part:
as §1, §2

The next assay has as its system Lolium perenne (LOLPE). Put plainly: Post-emergence efficacy, Lolium perenne. The procedure:
as §1, §2

Assay [2] deals with Amaranthus retroflexus (AMARE). The assay is described as follows: Post-emergence efficacy, Amaranthus retroflexus. As for the experimental part: as §1, §2
Assay [3] has as its system Echinochloa crus-galli (ECHCG). Put plainly: Post-emergence efficacy, Echinochloa crus-galli. The procedure: as §1, §2
The subject of another assay is Setaria faberi (SETFA). The assay is described as follows: Post-emergence efficacy, Setaria faberi. The procedure: as §1, §2

For `Cc1nc(COc2c(Cl)ccc(Cl)c2-c2c(O)c(C)nn(C)c2=O)cs1` [Compound 1.12], the “IPOHE percentage damage caused to the plant (five point scale)” value (shortened to “IPOHE percentage damage caused”) in assay [1] (62.5 g/ha) is reported as 4 (4=60-79%); in assay [1] (1000 g/ha) it was 5 (5=80-100%). Further, the “SOLNI percentage damage caused to the plant (five point scale)” value (from here on “SOLNI percentage damage caused”) in the assay with Solanum nigrum (SOLNI) (62.5 g/ha) is listed as 3 (3=40-59%); with Solanum nigrum (SOLNI) (1000 g/ha) it was 5 (5=80-100%). For the same molecule, the results for the “LOLPE percentage damage caused to the plant (five point scale)” value (“LOLPE percentage damage caused” for short) in the assay on Lolium perenne (LOLPE) (62.5 g/ha) and in the assay on Lolium perenne (LOLPE) (1000 g/ha) were 1 (1=0-19%) and 4 (4=60-79%), respectively. The “AMARE percentage damage caused to the plant (five point scale)” value (“AMARE percentage damage caused” for short) in assay [2] (62.5 g/ha) is reported as 3 (3=40-59%); in assay [2] (1000 g/ha) it was 5 (5=80-100%). Also, the “ECHCG percentage damage caused to the plant (five point scale)” value (“ECHCG percentage damage caused” for short) in assay [3] (62.5 g/ha) is on record as 2 (2=20-39%); in assay [3] (1000 g/ha) it was 4 (4=60-79%). Also, the “SETFA percentage damage caused to the plant (five point scale)” value (“SETFA percentage damage caused” for short) is recorded as 2 (2=20-39%) in the assay on Setaria faberi (SETFA) (62.5 g/ha) and 5 (5=80-100%) in the assay on Setaria faberi (SETFA) (1000 g/ha).
As for `Cc1csc(COc2c(Cl)ccc(Cl)c2-c2c(O)c(C)nn(C)c2=O)n1` [Compound 1.13], the entries for the “IPOHE percentage damage caused” value in assay [1] (62.5 g/ha) and in assay [1] (1000 g/ha) were 4 (4=60-79%) and 5 (5=80-100%), respectively. For the same molecule, the “SOLNI percentage damage caused” value with Solanum nigrum (SOLNI) (62.5 g/ha) was 4 (4=60-79%); in the assay with Solanum nigrum (SOLNI) (1000 g/ha), 5 (5=80-100%). Also, the “LOLPE percentage damage caused” value in the assay on Lolium perenne (LOLPE) (62.5 g/ha) is on record as 2 (2=20-39%); in the assay on Lolium perenne (LOLPE) (1000 g/ha), 4 (4=60-79%). Further, the “AMARE percentage damage caused” value in assay [2] (62.5 g/ha) is 3 (3=40-59%); in assay [2] (1000 g/ha), 4 (4=60-79%). In addition, the “ECHCG percentage damage caused” value in assay [3] (62.5 g/ha) is 3 (3=40-59%); in assay [3] (1000 g/ha), 5 (5=80-100%). The “SETFA percentage damage caused” value was 4 (4=60-79%) with Setaria faberi (SETFA) (62.5 g/ha) and 5 (5=80-100%) in the assay on Setaria faberi (SETFA) (1000 g/ha).
`Cc1nn(C)c(=O)c(-c2c(Cl)ccc(Cl)c2OCc2ccnc(Cl)c2)c1O` [Compound 1.14]: the “IPOHE percentage damage caused” value in assay [1] (62.5 g/ha) and in assay [1] (1000 g/ha) was 5 (5=80-100%) throughout. The “SOLNI percentage damage caused” value is listed as 4 (4=60-79%) in the assay on Solanum nigrum (SOLNI) (62.5 g/ha) and 5 (5=80-100%) in the assay with Solanum nigrum (SOLNI) (1000 g/ha). Moreover, the “LOLPE percentage damage caused” value in the assay with Lolium perenne (LOLPE) (62.5 g/ha) is listed as 3 (3=40-59%); with Lolium perenne (LOLPE) (1000 g/ha), 5 (5=80-100%). The “AMARE percentage damage caused” value in assay [2] (62.5 g/ha) and in assay [2] (1000 g/ha) was 5 (5=80-100%) each time. Besides, the “ECHCG percentage damage caused” value in assay [3] (62.5 g/ha) is recorded as 4 (4=60-79%); in assay [3] (1000 g/ha), 5 (5=80-100%). Also, the “SETFA percentage damage caused” value with Setaria faberi (SETFA) (62.5 g/ha) is 4 (4=60-79%); with Setaria faberi (SETFA) (1000 g/ha) it was 5 (5=80-100%).
As for `CC1=NN(C)C(=O)C(c2c(Cl)ccc(Cl)c2OCc2cnc(Cl)s2)C1=O` (stereo not drawn) [Compound 1.19, 4-[3,6-dichloro-2-[(2-chlorothiazol-5-yl)methoxy]phenyl]-2,6-dimethyl-pyridazine-3,5-dione], the “IPOHE percentage damage caused” value in assay [1] (62.5 g/ha) and in assay [1] (1000 g/ha) was 5 (5=80-100%) in each case. Also, the “SOLNI percentage damage caused” value in the assay with Solanum nigrum (SOLNI) (62.5 g/ha) and in the assay with Solanum nigrum (SOLNI) (1000 g/ha) was 5 (5=80-100%) in each case. Also, the “LOLPE percentage damage caused” value in the assay on Lolium perenne (LOLPE) (62.5 g/ha) and in the assay with Lolium perenne (LOLPE) (1000 g/ha) was 5 (5=80-100%) in each case. Also, the “AMARE percentage damage caused” value in assay [2] (62.5 g/ha) and in assay [2] (1000 g/ha) was 5 (5=80-100%) throughout. For the same molecule, the “ECHCG percentage damage caused” value in assay [3] (62.5 g/ha) was 3 (3=40-59%); in assay [3] (1000 g/ha), 5 (5=80-100%). For the same molecule, the “SETFA percentage damage caused” value in the assay with Setaria faberi (SETFA) (62.5 g/ha) and with Setaria faberi (SETFA) (1000 g/ha) was 5 (5=80-100%) each time.
Regarding `Cc1cnc(COc2c(Cl)ccc(Cl)c2-c2c(O)c(C)nn(C)c2=O)cn1` [Compound 1.21], the “IPOHE percentage damage caused” value in assay [1] (62.5 g/ha) is given as 4 (4=60-79%); in assay [1] (1000 g/ha), 5 (5=80-100%). Moreover, the “SOLNI percentage damage caused” value in the assay on Solanum nigrum (SOLNI) (62.5 g/ha) is reported as 3 (3=40-59%); in the assay on Solanum nigrum (SOLNI) (1000 g/ha), 4 (4=60-79%). In addition, the “LOLPE percentage damage caused” value in the assay on Lolium perenne (LOLPE) (62.5 g/ha) is given as 1 (1=0-19%); in the assay on Lolium perenne (LOLPE) (1000 g/ha), 2 (2=20-39%). Besides, the “AMARE percentage damage caused” value in assay [2] (62.5 g/ha) is listed as 2 (2=20-39%); in assay [2] (1000 g/ha), 3 (3=40-59%). The “ECHCG percentage damage caused” value in assay [3] (62.5 g/ha) is 1 (1=0-19%); in assay [3] (1000 g/ha), 4 (4=60-79%). Moreover, the results for the “SETFA percentage damage caused” value with Setaria faberi (SETFA) (62.5 g/ha) and in the assay with Setaria faberi (SETFA) (1000 g/ha) were 3 (3=40-59%) and 5 (5=80-100%), respectively.
Turning to `Cc1nn(C)c(=O)c(-c2c(F)ccc(Cl)c2OCc2cccnc2)c1O` [Compound 1.23], the “IPOHE percentage damage caused” value is listed as 4 (4=60-79%) in assay [1] (62.5 g/ha) and 5 (5=80-100%) in assay [1] (1000 g/ha). For the same molecule, the results for the “SOLNI percentage damage caused” value in the assay with Solanum nigrum (SOLNI) (62.5 g/ha) and in the assay on Solanum nigrum (SOLNI) (1000 g/ha) were 4 (4=60-79%) and 5 (5=80-100%), respectively. Besides, the “LOLPE percentage damage caused” value is reported as 2 (2=20-39%) with Lolium perenne (LOLPE) (62.5 g/ha) and 5 (5=80-100%) in the assay on Lolium perenne (LOLPE) (1000 g/ha). Besides, the figures for the “AMARE percentage damage caused” value in assay [2] (62.5 g/ha) and in assay [2] (1000 g/ha) were 4 (4=60-79%) and 5 (5=80-100%), respectively. The results for the “ECHCG percentage damage caused” value in assay [3] (62.5 g/ha) and in assay [3] (1000 g/ha) were 2 (2=20-39%) and 5 (5=80-100%), respectively. Besides, the “SETFA percentage damage caused” value in the assay on Setaria faberi (SETFA) (62.5 g/ha) was 2 (2=20-39%); in the assay on Setaria faberi (SETFA) (1000 g/ha), 5 (5=80-100%).
As for `Cc1nn(C)c(=O)c(-c2c(F)ccc(Cl)c2OCc2ccncc2)c1O` [Compound 1.24], the “IPOHE percentage damage caused” value in assay [1] (62.5 g/ha) is reported as 4 (4=60-79%); in assay [1] (1000 g/ha), 5 (5=80-100%). Also, the “SOLNI percentage damage caused” value in the assay with Solanum nigrum (SOLNI) (62.5 g/ha) was 4 (4=60-79%); with Solanum nigrum (SOLNI) (1000 g/ha), 5 (5=80-100%). Moreover, the “LOLPE percentage damage caused” value in the assay with Lolium perenne (LOLPE) (62.5 g/ha) is reported as 1 (1=0-19%); with Lolium perenne (LOLPE) (1000 g/ha), 5 (5=80-100%). Also, the “AMARE percentage damage caused” value in assay [2] (62.5 g/ha) was 2 (2=20-39%); in assay [2] (1000 g/ha), 5 (5=80-100%). The “ECHCG percentage damage caused” value in assay [3] (62.5 g/ha) was 3 (3=40-59%); in assay [3] (1000 g/ha) it was 5 (5=80-100%). The “SETFA percentage damage caused” value in the assay on Setaria faberi (SETFA) (62.5 g/ha) was 1 (1=0-19%); in the assay on Setaria faberi (SETFA) (1000 g/ha), 5 (5=80-100%).
Take `Cc1nn(C)c(=O)c(-c2c(F)ccc(Cl)c2OCc2nccs2)c1O` [Compound 1.25]: the “IPOHE percentage damage caused” value in assay [1] (62.5 g/ha) and in assay [1] (1000 g/ha) was 5 (5=80-100%) in each case. The “SOLNI percentage damage caused” value in the assay with Solanum nigrum (SOLNI) (62.5 g/ha) and in the assay on Solanum nigrum (SOLNI) (1000 g/ha) was 5 (5=80-100%) throughout. Moreover, the “LOLPE percentage damage caused” value in the assay on Lolium perenne (LOLPE) (62.5 g/ha) was 4 (4=60-79%); in the assay on Lolium perenne (LOLPE) (1000 g/ha) it was 5 (5=80-100%). In addition, the “AMARE percentage damage caused” value in assay [2] (62.5 g/ha) and in assay [2] (1000 g/ha) was 5 (5=80-100%) in each case. Besides, the “ECHCG percentage damage caused” value in assay [3] (62.5 g/ha) is listed as 4 (4=60-79%); in assay [3] (1000 g/ha), 5 (5=80-100%). For the same molecule, the “SETFA percentage damage caused” value with Setaria faberi (SETFA) (62.5 g/ha) and in the assay with Setaria faberi (SETFA) (1000 g/ha) was 5 (5=80-100%) each time.
With `Cc1nc(COc2c(Cl)ccc(F)c2-c2c(O)c(C)nn(C)c2=O)cs1` [Compound 1.33], the entries for the “IPOHE percentage damage caused” value in assay [1] (62.5 g/ha) and in assay [1] (1000 g/ha) were 4 (4=60-79%) and 5 (5=80-100%), respectively. In addition, the “SOLNI percentage damage caused” value with Solanum nigrum (SOLNI) (62.5 g/ha) is 4 (4=60-79%); in the assay on Solanum nigrum (SOLNI) (1000 g/ha), 5 (5=80-100%). Also, the figures for the “LOLPE percentage damage caused” value in the assay with Lolium perenne (LOLPE) (62.5 g/ha) and in the assay with Lolium perenne (LOLPE) (1000 g/ha) were 2 (2=20-39%) and 4 (4=60-79%), respectively. The “AMARE percentage damage caused” value was 3 (3=40-59%) in assay [2] (62.5 g/ha) and 5 (5=80-100%) in assay [2] (1000 g/ha). Besides, the entries for the “ECHCG percentage damage caused” value in assay [3] (62.5 g/ha) and in assay [3] (1000 g/ha) were 3 (3=40-59%) and 4 (4=60-79%), respectively. Also, the figures for the “SETFA percentage damage caused” value with Setaria faberi (SETFA) (62.5 g/ha) and with Setaria faberi (SETFA) (1000 g/ha) were 2 (2=20-39%) and 5 (5=80-100%), respectively.
